Structures can show the parent of a compound that is named as a salt.
Assays:
[1] = Shelf-life (t 90%) forecast of doxorubicin.HCl 2 mg/ml sterile water solution adjusted to pH 3.0; type: physicochemical; settings: for Kobs × 10^3: observed
Method: The Arrhenius equation for the degradation process was calculated from the Kobs obtained from the different temperatures taken in account for the testing (table 11).
Applying the equation, the rate constants for the pseudo-first order reactions at 4° C., 8° C., 15° C. and 27° C. were calculated, together with the expected t90% at these temperatures.

[2] = pH-stability profile at 55° C. of doxorubicin.HCl solutions in sterile water, 5% dextrose, 0.9% saline; type: physicochemical
[3] = sterile water pH 3.0, 15° C., Arrhenius
[4] = sterile water pH 3.0, 27° C., 8 days
[5] = sterile water pH 3.0, 27° C., 14 days
[6] = sterile water pH 3.0, 27° C., 28 days
[7] = sterile water pH 3.0, 27° C., 32 days
[8] = sterile water pH 3.0, 27° C., 60 days
[9] = sterile water pH 3.0, 27° C., 90 days
[10] = sterile water pH 3.0, 35° C., 4 days
[11] = sterile water pH 3.0, 35° C., 8 days
[12] = sterile water pH 3.0, 35° C., 14 days
[13] = sterile water pH 3.0, 35° C., 32 days
[14] = sterile water pH 3.0, 45° C., 4 days
[15] = sterile water pH 3.0, 45° C., 8 days
[16] = sterile water pH 3.0, 45° C., 28 days
[17] = sterile water pH 3.0, 55° C., 4 days
[18] = sterile water pH 3.0, 55° C., 32 days

K × 10^3 calculated ([1]; sterile water pH 3.0, 4° C., Arrhenius): 0.019 1/days | K × 10^3 calculated ([1]; sterile water pH 3.0, 8° C., Arrhenius): 0.038 1/days | K × 10^3 calculated [1, 3]: 0.130 1/days | t90% [1, 3]: 810 days | pH ([1]; sterile water pH 3.0, 27° C., 0 days): 3.00 | Doxorubicin.HCl assay [1, 4]: 1.993 mg/mL | pH [1, 4]: 2.95 | Doxorubicin.HCl assay [1, 5]: 1.988 mg/mL | pH [1, 5]: 2.94 | Doxorubicin.HCl assay [1, 6]: 1.941 mg/mL | pH [1, 6]: 2.94 | Doxorubicin.HCl assay [1, 7]: 1.962 mg/mL | pH [1, 7]: 2.95 | Doxorubicin.HCl assay [1, 8]: 1.908 mg/mL | pH [1, 8]: 2.96 | Doxorubicin.HCl assay [1, 9]: 1.850 mg/mL | pH [1, 9]: 2.93 | K × 10^3 calculated ([1]; sterile water pH 3.0, 27° C., Arrhenius): 0.918 1/days | Kobs × 10^3 ([1]; sterile water pH 3.0, 27° C.): 0.850 1/days | pH ([1]; sterile water pH 3.0, 35° C., 0 days): 3.00 | Doxorubicin.HCl assay [1, 10]: 1.985 mg/mL | pH [1, 10]: 2.96 | Doxorubicin.HCl assay [1, 11]: 1.952 mg/mL | pH [1, 11]: 2.98 | Doxorubicin.HCl assay [1, 12]: 1.889 mg/mL | pH [1, 12]: 2.93 | pH ([1]; sterile water pH 3.0, 35° C., 28 days): 2.92 | Doxorubicin.HCl assay [1, 13]: 1.876 mg/mL | pH [1, 13]: 2.92 | Kobs × 10^3 ([1]; sterile water pH 3.0, 35° C.): 3.506 1/days | pH ([1]; sterile water pH 3.0, 45° C., 0 days): 3.00 | Doxorubicin.HCl assay [1, 14]: 1.919 mg/mL | pH [1, 14]: 2.97 | Doxorubicin.HCl assay [1, 15]: 1.851 mg/mL | pH [1, 15]: 2.95 | pH ([1]; sterile water pH 3.0, 45° C., 14 days): 2.85 | Doxorubicin.HCl assay [1, 16]: 1.393 mg/mL | pH [1, 16]: 2.90 | pH ([1]; sterile water pH 3.0, 45° C., 32 days): 2.92 | Kobs × 10^3 ([1]; sterile water pH 3.0, 45° C.): 12.790 1/days | pH ([1]; sterile water pH 3.0, 55° C., 0 days): 3.00 | Doxorubicin.HCl assay [1, 17]: 1.760 mg/mL | pH [1, 17]: 2.94 | pH ([1]; sterile water pH 3.0, 55° C., 8 days): 2.90 | pH ([1]; sterile water pH 3.0, 55° C., 14 days): 2.80 | Doxorubicin.HCl assay [1, 18]: 0.730 mg/mL | pH [1, 18]: 2.82 | Kobs × 10^3 ([1]; sterile water pH 3.0, 55° C.): 49.340 1/days | pH range of maximum stability ([2]; 2 mg/ml, 55° C., all three media, ±0.2): 3.0-3.5 | Kobs × 10^3 ([2]; 0.9% saline, Acetate pH 4.0, 55° C.): 215.7 1/days | Kobs × 10^3 ([2]; 0.9% saline, Acetate pH 5.0, 55° C.): 301.2 1/days | Kobs × 10^3 ([2]; 0.9% saline, Acetate pH 5.5, 55° C.): 430.3 1/days | Kobs × 10^3 ([2]; 0.9% saline, Formate pH 3.5, 55° C.): 148.1 1/days | Kobs × 10^3 ([2]; 0.9% saline, Glycine-HCl pH 2.0, 55° C.): 362.4 1/days | Kobs × 10^3 ([2]; 0.9% saline, Glycine-HCl pH 2.5, 55° C.): 276.5 1/days | Kobs × 10^3 ([2]; 0.9% saline, Glycine-HCl pH 3.0, 55° C.): 133.2 1/days | Doxorubicin.HCl % stability ([2]; 0.9% saline, pH 2.5 buffer, 55° C., 0 hours): 100.0% | Doxorubicin.HCl % stability ([2]; 0.9% saline, pH 2.5 buffer, 55° C., 16 hours): 85.8% | Doxorubicin.HCl % stability ([2]; 0.9% saline, pH 2.5 buffer, 55° C., 24 hours): 82.3% | Doxorubicin.HCl % stability ([2]; 0.9% saline, pH 2.5 buffer, 55° C., 34 hours): 70.3% | Doxorubicin.HCl % stability ([2]; 0.9% saline, pH 2.5 buffer, 55° C., 48 hours): 58.1% | Doxorubicin.HCl % stability ([2]; 0.9% saline, pH 3.0 buffer, 55° C., 0 hours): 100.0% | Doxorubicin.HCl % stability ([2]; 0.9% saline, pH 3.0 buffer, 55° C., 16 hours): 91.2% | Doxorubicin.HCl % stability ([2]; 0.9% saline, pH 3.0 buffer, 55° C., 24 hours): 88.8% | Doxorubicin.HCl % stability ([2]; 0.9% saline, pH 3.0 buffer, 55° C., 48 hours): 78.8% | Doxorubicin.HCl % stability ([2]; 0.9% saline, pH 3.0 buffer, 55° C., 72 hours): 69.0% | Doxorubicin.HCl % stability ([2]; 0.9% saline, pH 3.0 buffer, 55° C., 96 hours): 60.4% | Doxorubicin.HCl % stability ([2]; 0.9% saline, pH 3.0 buffer, 55° C., 120 hours): 50.3% | Doxorubicin.HCl % stability ([2]; 0.9% saline, pH 3.5 buffer, 55° C., 0 hours): 100.0% | Doxorubicin.HCl % stability ([2]; 0.9% saline, pH 3.5 buffer, 55° C., 16 hours): 91.4% | Doxorubicin.HCl % stability ([2]; 0.9% saline, pH 3.5 buffer, 55° C., 24 hours): 87.2% | Doxorubicin.HCl % stability ([2]; 0.9% saline, pH 3.5 buffer, 55° C., 48 hours): 77.3% | Doxorubicin.HCl % stability ([2]; 0.9% saline, pH 3.5 buffer, 55° C., 96 hours): 58.9% | Doxorubicin.HCl % stability ([2]; 0.9% saline, pH 3.5 buffer, 55° C., 120 hours): 46.0% | Kobs × 10^3 ([2]; 5% dextrose, Acetate pH 4.0, 55° C.): 209.7 1/days | Kobs × 10^3 ([2]; 5% dextrose, Acetate pH 5.0, 55° C.): 273.1 1/days | Kobs × 10^3 ([2]; 5% dextrose, Acetate pH 5.5, 55° C.): 453.7 1/days | Kobs × 10^3 ([2]; 5% dextrose, Formate pH 3.5, 55° C.): 132.0 1/days | Kobs × 10^3 ([2]; 5% dextrose, Glycine-HCl pH 2.0, 55° C.): 323.8 1/days | Kobs × 10^3 ([2]; 5% dextrose, Glycine-HCl pH 2.5, 55° C.): 138.7 1/days | Kobs × 10^3 ([2]; 5% dextrose, Glycine-HCl pH 3.0, 55° C.): 100.5 1/days | Doxorubicin.HCl % stability ([2]; 5% dextrose, pH 2.0 buffer, 55° C., 0 hours): 100.0% | Doxorubicin.HCl % stability ([2]; 5% dextrose, pH 2.0 buffer, 55° C., 8 hours): 92.8% | Doxorubicin.HCl % stability ([2]; 5% dextrose, pH 2.0 buffer, 55° C., 16 hours): 84.4%
SMILES: COc1cccc2c1C(=O)c1c(O)c3c(c(O)c1C2=O)C[C@@](O)(C(=O)CO)C[C@@H]3O[C@H]1C[C@H](N)[C@H](O)[C@H](C)O1 [Doxorubicin.HCl, doxorubicin hydrochloride]
commercially meaningful shelf-life (t90% forecasts) ([1]; 2 mg/ml pH 3.0 aqueous solution): only if the product is stored in a refrigerator

Reference: patent US6632799B2, “Injectable ready-to-use solutions containing an antitumor anthracycline glycoside” (Pharmacia & Upjohn Company, priority 1985, dated 2003)
